Test results from patent US20040024024A1, “Aromatic sulfone hydroxamates and their use as protease inhibitors” (priority 2001, published 2004).

Columns and labels:
Test in all cases: In vitro MMP inhibition, IC50 determination (fluorogenic substrate I)
Type in all cases: biochemical
Human recombinant MMP-1 = molecular target: T1, Human recombinant MMP-1 (Homo sapiens, UniProt P03956)
T1 construct: made in house; host or cells: MMP-1-transfected HT-1080 cells (spent media)
T1 sequence (P03956 100-469): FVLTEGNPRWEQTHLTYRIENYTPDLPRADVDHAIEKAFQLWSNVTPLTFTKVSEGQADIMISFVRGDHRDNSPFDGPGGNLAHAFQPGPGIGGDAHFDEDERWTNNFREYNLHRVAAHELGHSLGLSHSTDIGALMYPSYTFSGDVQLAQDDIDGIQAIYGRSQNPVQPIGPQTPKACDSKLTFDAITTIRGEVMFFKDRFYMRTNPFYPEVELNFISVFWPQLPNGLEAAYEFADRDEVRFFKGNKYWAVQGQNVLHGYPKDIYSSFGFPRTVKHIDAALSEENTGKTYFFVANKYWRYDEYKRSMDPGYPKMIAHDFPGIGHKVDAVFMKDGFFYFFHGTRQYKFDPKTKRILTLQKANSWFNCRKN
Protocol: (§1) Several hydroxamates and salts thereof were analyzed in in vitro assays to determine their ability to inhibit the MMP cleavage of peptide substrates. Inhibition (Ki) and IC50 constants were calculated from the assayed hydroxamate-MMP interactions.
(§2) Human recombinant MMP-1, MMP-2, MMP-9, MMP-13, and MMP-14 were used in this assay. All enzymes were prepared in Assignee's laboratories following usual laboratory procedures. Protocols for the preparation and use of these enzymes are available in the scientific literature. See, e.g., Enzyme Nomenclature (Academic Press, San Diego, Calif., 1992) (and the citations therein). See also, Frije et al., J. Biol. Chem., 26(24), 16766-73 (1994).
The MMP-1 proenzyme was purified from the spent media of MMP-1-transfected HT-1080 cells provided by Dr. Harold Welgus of Washington University (St. Louis, Mo.). The protein was purified on a zinc chelating column.
(§3) All MMPs were activated using 4-aminophenylmercuric acetate (“APMA”, Sigma Chemical, St. Louis, Mo.) or trypsin. MMP-9 also was activated using human recombinant MMP-3 (purified in Assignee's laboratory following standard cloning and purification techniques).
(§4) Two fluorogenic, methoxycoumarin-containing polypeptide substrates were used in the MMP inhibition assays:
(§5) MCA-ProLeuGlyLeuDpaAlaArgNH2 (I)
(§6) Here, “Dpa” is 3-(2,4-dinitrophenyl)-L-2,3-diaminopropionyl group, and “MCA” is 7-methoxycoumarin-4-yl acetyl. Substrate (I) was purchased from Baychem (Redwood City, Calif.), and substrate II was prepared Assignee's laboratory. Substrate I was used in the IC50 determination assays, while substrate II was used in the Ki determination assays. In the absence of MMP inhibitory activity, either substrate is cleaved at the Gly-Leu peptide bond. This cleavage separates the highly fluorogenic peptide from the 2,4-dinitrophenyl quencher, thus resulting in increase of fluorescent intensity.
(§7) The stock solutions of the assayed hydroxamates (or salts thereof) were prepared in 1% dimethyl sulfoxide (DMSO). These stock solutions were diluted in Buffer A (100 mM Tris-HCl, 100 mM NaCl, 10 mM CaCl2, 0.05% polyoxyethylene 23 lauryl ether, pH 7.5) to obtain solutions with different hydroxamate concentrations, i.e., assay solutions with different concentrations of the assayed MMP inhibitory compound. The experiment controls contained the same amount of Buffer A/DMSO as the assayed sample, but contained no hydroxamate (or salt thereof).
(§8) The assays from which the IC50 determinations were made were performed as follows. The MMPs were activated with either trypsin or APMA (4-aminophenylmercuric acetate, Sigma Chemical, St. Louis, Mo.). The assayed hydroxamate samples were, incubated in Microfluorrm White Plates (Dynatech, Chantilly, VA) and analyzed on a Perkin Elmer L550 plate reader (Norwalk, Conn.). The excitation wavelength was 328 nm, and the emission wavelength—415 nm. All samples (assayed hydroxamates and controls) were incubated in separate plates at room temperature in the presence of 4 μM of MMP substrate (I). As stated in the previous paragraph, samples containing varying concentrations of the same assayed hydroxamate were prepared. Inhibition was measured as a reduction in fluorescent intensity as a function of MMP inhibitor concentration.

Human recombinant MMP-2 = molecular target: T2, Human recombinant MMP-2 (Homo sapiens, UniProt P08253)
T2 construct: made in house; host or cells: MMP-2-transfected p2AHT2 cells
T2 sequence (P08253 110-660): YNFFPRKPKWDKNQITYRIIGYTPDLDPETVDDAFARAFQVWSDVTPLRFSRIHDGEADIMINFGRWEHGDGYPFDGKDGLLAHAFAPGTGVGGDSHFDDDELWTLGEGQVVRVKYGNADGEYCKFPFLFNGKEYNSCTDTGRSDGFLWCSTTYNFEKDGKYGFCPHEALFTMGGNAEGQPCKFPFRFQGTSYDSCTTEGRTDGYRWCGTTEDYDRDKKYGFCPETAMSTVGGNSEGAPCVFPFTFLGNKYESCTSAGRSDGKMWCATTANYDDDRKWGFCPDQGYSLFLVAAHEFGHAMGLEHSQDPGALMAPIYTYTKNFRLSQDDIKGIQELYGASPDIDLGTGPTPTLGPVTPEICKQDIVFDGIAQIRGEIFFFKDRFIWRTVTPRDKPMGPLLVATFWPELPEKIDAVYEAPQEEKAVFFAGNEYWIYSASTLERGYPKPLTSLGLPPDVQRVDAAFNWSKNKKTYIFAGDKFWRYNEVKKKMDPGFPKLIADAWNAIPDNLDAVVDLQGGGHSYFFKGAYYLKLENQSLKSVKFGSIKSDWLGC
Outline: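 APMA- or trypsin-activated recombinant MMP-2 was incubated at room temperature with serial inhibitor dilutions in Tris buffer pH 7.5 (100 mM NaCl, 10 mM CaCl2, 0.05% Brij), with DMSO from 1% stocks, and 4 μM substrate I. Cleavage was read by fluorescence at 328/415 nm; IC50 was taken from the loss of fluorescence versus inhibitor concentration.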

Human recombinant MMP-14 = molecular target: T3, Human recombinant MMP-14 (Homo sapiens, UniProt P50281)
T3 construct: The catalytic domain enzyme was expressed in E. coli inclusion bodies, solubilized in urea; made in house
Protocol: as §1, §2
The MMP-14 full length cDNA was provided by Dr. Gregory Goldberg of Washington University (St. Louis, Mo.). The catalytic domain enzyme was expressed in E. coli inclusion bodies, solubilized in urea, purified on a preparative […] reverse phase HPLC column, and then refolded in the presence of zinc acetate and purified for use.
as §3, §4, §5, §6, §7, §8

Human recombinant MMP-9 = molecular target: T4, Human recombinant MMP-9 (Homo sapiens, UniProt P14780)
T4 construct: made in house; host or cells: MMP-9-transfected HT1080 cells (spent media)
T4 sequence (P14780 107-707 limits assumed): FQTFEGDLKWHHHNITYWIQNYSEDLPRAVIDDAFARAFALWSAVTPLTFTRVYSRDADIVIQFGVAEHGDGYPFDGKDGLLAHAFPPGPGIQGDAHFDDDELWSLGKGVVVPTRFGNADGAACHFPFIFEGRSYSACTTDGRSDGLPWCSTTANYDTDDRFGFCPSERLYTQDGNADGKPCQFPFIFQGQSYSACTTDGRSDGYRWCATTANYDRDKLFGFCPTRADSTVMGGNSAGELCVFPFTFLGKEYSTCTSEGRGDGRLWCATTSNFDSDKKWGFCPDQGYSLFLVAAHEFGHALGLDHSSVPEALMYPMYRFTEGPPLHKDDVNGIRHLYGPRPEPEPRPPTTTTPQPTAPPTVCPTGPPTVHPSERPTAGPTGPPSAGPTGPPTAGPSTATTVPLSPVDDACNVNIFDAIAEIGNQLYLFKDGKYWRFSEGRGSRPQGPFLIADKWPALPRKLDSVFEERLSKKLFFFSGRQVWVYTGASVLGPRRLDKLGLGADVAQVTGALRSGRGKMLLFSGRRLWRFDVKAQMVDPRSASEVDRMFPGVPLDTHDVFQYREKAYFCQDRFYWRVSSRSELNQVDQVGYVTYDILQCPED
Protocol: as §1, §2
The MMP-9 proenzyme was purified by gelatin Sepharose chromatography from spent media of MMP-9-transfected HT1080 cells provided by Dr. Howard Welgus of Washington University (St. Louis, Mo.).
as §3, §4, §5, §6, §7, §8

Human recombinant MMP-13 = molecular target: T5, Human recombinant MMP-13 (Homo sapiens, UniProt P45452)
T5 construct: made in house; host or cells: baculovirus / insect cells
Outline: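 Fluorescence at 415 nm (excitation 328 nm) reports Gly-Leu cleavage of 4 μM quenched methoxycoumarin peptide substrate I. Human recombinant MMP-13, activated by trypsin or APMA, was incubated at room temperature with varied inhibitor concentrations in pH 7.5 Tris/NaCl/CaCl2 buffer; IC50 derived from reduced fluorescence.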

[1] = value outside parentheses (Ki in parenthesis)

| Structure (SMILES) | IC50 (Human recombinant MMP-1; [1]) | IC50 (Human recombinant MMP-2; [1]) | IC50 (Human recombinant MMP-14; [1]) | IC50 (Human recombinant MMP-9; [1]) | IC50 (Human recombinant MMP-13; [1]) | other results |
| --- | --- | --- | --- | --- | --- | --- |
| Cc1ccccc1N1CC(=O)N(CCCOc2ccc(S(=O)(=O)C3(C(=O)NO)CCOCC3)cc2)C1=O [Example 226] |  |  |  |  |  | IC50 (Human recombinant MMP-1; value outside parenthesis): > 10 µM; IC50 (Human recombinant MMP-2; value outside parenthesis): 222 nM; IC50 (Human recombinant MMP-14; value outside parenthesis): > 10000 nM; IC50 (Human recombinant MMP-9; value outside parenthesis): 2140 nM; IC50 (Human recombinant MMP-13; value outside parenthesis): 4.3 nM |
| CC(=O)Nc1cccc(OCCOc2ccc(S(=O)(=O)C3(C(=O)NO)CCOCC3)cc2)c1 [Example 670] |  |  |  |  |  | IC50 (Human recombinant MMP-1; value outside parentheses): > 10 µM; IC50 (Human recombinant MMP-2; value outside parentheses): 163 nM; IC50 (Human recombinant MMP-14; value outside parentheses): 2370 nM; IC50 (Human recombinant MMP-9; value outside parentheses): 183 nM; IC50 (Human recombinant MMP-13; value outside parentheses): 14 nM |
| CC(C)(COc1ccc(S(=O)(=O)C2(C(=O)NO)CCOCC2)cc1)CSc1ccccc1 [Example 437] | > 10 µM | > 10000 nM | > 10000 nM | > 10000 nM | 90 nM |  |
| COC(C)CCOc1ccc(S(=O)(=O)C2(C(=O)NO)CCOCC2)cc1 (centres unmarked) [Example 472] | > 10 µM | 3 nM | 400 nM | 40 nM | 6 nM |  |
| Cc1ccc(C(=O)NCCCOc2ccc(S(=O)(=O)C3(C(=O)NO)CCOCC3)cc2)c(C)c1 [Example 373] | > 10 µM | 940 nM | > 10000 nM | 3940 nM | 7 nM |  |
| O=C(CCCCOc1ccc(S(=O)(=O)C2(C(=O)NO)CCOCC2)cc1)c1cccs1 [Example 324] | 2.99 µM | 4.2 nM | 8000 nM | 500 nM | 0.5 nM |  |
| O=C(NO)C1(S(=O)(=O)c2ccc(OCCCCCN3CCc4ccccc4C3)cc2)CCOCC1 [Example 360] | > 10 µM | 9.7 nM | 962 nM | 547 nM | 6.4 nM |  |
| CC(=O)c1cccc(OCCOc2ccc(S(=O)(=O)C3(C(=O)NO)CCOCC3)cc2)c1 [Example 658] |  |  |  |  |  | IC50 (Human recombinant MMP-1; value outside parentheses): > 10 µM; IC50 (Human recombinant MMP-2; value outside parentheses): 156 nM; IC50 (Human recombinant MMP-14; value outside parentheses): > 10000 nM; IC50 (Human recombinant MMP-9; value outside parentheses): 891 nM; IC50 (Human recombinant MMP-13; value outside parentheses): 3.27 nM |
| COc1ccc(C(=O)C(O)CCOc2ccc(S(=O)(=O)C3(C(=O)NO)CCOCC3)cc2)cc1 (centres unmarked) [Example 184] |  |  |  |  |  | IC50 (Human recombinant MMP-1; value outside parenthesis): 1.53 µM; IC50 (Human recombinant MMP-2; value outside parenthesis): 30.4 nM; IC50 (Human recombinant MMP-14; value outside parenthesis): 2720 nM; IC50 (Human recombinant MMP-9; value outside parenthesis): 104 nM; IC50 (Human recombinant MMP-13; value outside parenthesis): 3.9 nM |
| CN(C)c1ccc(C(=O)NCCCOc2ccc(S(=O)(=O)C3(C(=O)NO)CCOCC3)cc2)cc1 [Example 361] | 6 µM | 500 nM | > 10000 nM | > 10000 nM | 0.5 nM |  |
